Experimental data taken from PMC7419507, “In vitro Cas9-assisted editing of modular polyketide synthase genes to produce desired natural product derivatives” (Nature Communications, 2020).
Values joined by “and” are separate entries in the source; they are usually repeats but may differ in a detail not shown here. Equal entries are not always repeated.

Legend:
Assay type in all cases: cell-based
T lymphoma Jurkat cells = experiment: Cytotoxicity assay (CellTiter-Glo, 72 h), Jurkat; details: raw data (replicates)
Procedure, shortened: (§1)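 Incubate 4 h at 37 °C, 5% CO2. Add 2-fold compound dilutions, 0.5% DMSO. After 72 h, read CellTiter-Glo luminescence.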

[1] = system: Jurkat, SKOV-3 and MESO-1 cells; experiment: Cytotoxicity assay, statements for all tested cell lines together; details: Jurkat, SKOV-3 and MESO-1 cells, 72 h
Procedure, shortened: as §1

[2] = Cytotoxicity assay (CellTiter-Glo, 72 h), MESO-1; details: human, MESO-1 malignant pleural mesothelioma cells, raw replicate data, read-out: MESO1 viability (%)
Procedure, shortened: as §1

[3] = system: malignant pleural mesothelioma MESO-1 cells; experiment: Cytotoxicity assay (CellTiter-Glo, 72 h), MESO-1; details: raw replicate data
Procedure, shortened: as §1

SMILES: CO[C@@H]1C[C@H](C[C@@H](C)[C@@H]2CC(=O)[C@H](C)/C=C(\C)[C@@H](O)[C@@H](OC)C(=O)[C@H](C)C[C@H](C)/C=C/C=C/C=C(\C)[C@H](O)C[C@@H]3CC[C@@H](C)[C@@](O)(O3)C(=O)C(=O)N3CCCC[C@H]3C(=O)O2)CC[C@H]1O [Compound 17, (16R)-16-O-demethyl rapamycin]
- Jurkat viability (%) (T lymphoma Jurkat cells; conc 9.53674e-5 uM): 104.2% and 104.9%
- Jurkat viability (%) (T lymphoma Jurkat cells; conc 0.000190735 uM): 98.3% and 107.4%
- Jurkat viability (%) (T lymphoma Jurkat cells; conc 0.00038147 uM): 107.2% and 107.3%
- Jurkat viability (%) (T lymphoma Jurkat cells; conc 0.000762939 uM): 99.4%
- Jurkat viability (%) (T lymphoma Jurkat cells; conc 0.00152588 uM): 99.3% and 104.0%
- Jurkat viability (%) (T lymphoma Jurkat cells; conc 0.00305176 uM): 97.0% and 104.1%
- Jurkat viability (%) (T lymphoma Jurkat cells; conc 0.00610352 uM): 89.4% and 97.3%
- Jurkat viability (%) (T lymphoma Jurkat cells; conc 0.012207 uM): 81.9% and 78.2%
- Jurkat viability (%) (T lymphoma Jurkat cells; conc 0.0244141 uM): 72.3% and 67.5%
- Jurkat viability (%) (T lymphoma Jurkat cells; conc 0.0488281 uM): 50.1% and 57.1%
- Jurkat viability (%) (T lymphoma Jurkat cells; conc 0.0976562 uM): 39.4% and 41.6%
- Jurkat viability (%) (T lymphoma Jurkat cells; conc 0.195312 uM): 33.7% and 37.9%
- Jurkat viability (%) (T lymphoma Jurkat cells; conc 0.390625 uM): 35.4% and 34.2%
- Jurkat viability (%) (T lymphoma Jurkat cells; conc 0.78125 uM): 31.2% and 32.6%
- Jurkat viability (%) (T lymphoma Jurkat cells; conc 1.5625 uM): 28.2% and 33.2%
- Jurkat viability (%) (T lymphoma Jurkat cells; conc 3.125 uM): 27.7% and 29.4%
- Jurkat viability (%) (T lymphoma Jurkat cells; conc 6.25 uM): 29.5%
- Jurkat viability (%) (T lymphoma Jurkat cells; conc 12.5 uM): 26.8%
- Jurkat viability (%) (T lymphoma Jurkat cells; conc 25 uM): 30.6% and 29.0%
- Jurkat viability (%) (T lymphoma Jurkat cells; conc 50 uM): 21.7% and 20.3%
- Effect on cell viability, in words [1]: slightly suppressed the cell viabilities
- viability at 72 h, 9.53674e-05 uM ([2]; conc 9.53674e-5 uM): 103%
- viability at 72 h, 0.000190735 uM ([2]; conc 0.000190735 uM): 89.1%
- viability at 72 h, 0.00038147 uM ([2]; conc 0.00038147 uM): 100%
- viability at 72 h, 0.000762939 uM ([2]; conc 0.000762939 uM): 97.1%
- viability at 72 h, 0.00152588 uM ([2]; conc 0.00152588 uM): 98.3%
- viability at 72 h, 0.00305176 uM ([2]; conc 0.00305176 uM): 92.9%
- viability at 72 h, 0.00610352 uM ([2]; conc 0.00610352 uM): 89.6%
- viability at 72 h, 0.012207 uM ([2]; conc 0.012207 uM): 83.5%
- viability at 72 h, 0.0244141 uM ([2]; conc 0.0244141 uM): 86.9%
- viability at 72 h, 0.0488281 uM ([2]; conc 0.0488281 uM): 85.1%
- viability at 72 h, 0.0976562 uM ([2]; conc 0.0976562 uM): 78.9%
- viability at 72 h, 0.195312 uM ([2]; conc 0.195312 uM): 71.5%
- viability at 72 h, 0.390625 uM ([2]; conc 0.390625 uM): 79.6%
- viability at 72 h, 0.78125 uM ([2]; conc 0.78125 uM): 73.1%
- viability at 72 h, 1.5625 uM ([2]; conc 1.5625 uM): 71.7%
- viability at 72 h, 3.125 uM ([2]; conc 3.125 uM): 72.9%
- viability at 72 h, 6.25 uM ([2]; conc 6.25 uM): 74.2%
- viability at 72 h, 12.5 uM ([2]; conc 12.5 uM): 72.1%
- viability at 72 h, 25 uM ([2]; conc 25 uM): 67.4%
- viability at 72 h, 50 uM ([2]; conc 50 uM): 61.5%
- MESO1 viability (%) ([3]; conc 9.53674e-5 uM): 101.2% and 92.1%
- MESO1 viability (%) ([3]; conc 0.000190735 uM): 91.6% and 98.7%
- MESO1 viability (%) ([3]; conc 0.00038147 uM): 104.8% and 96.5%
- MESO1 viability (%) ([3]; conc 0.000762939 uM): 94.3% and 95.5%
- MESO1 viability (%) ([3]; conc 0.00152588 uM): 93.6% and 93.5%
- MESO1 viability (%) ([3]; conc 0.00305176 uM): 90.4% and 91.1%
- MESO1 viability (%) ([3]; conc 0.00610352 uM): 88.7% and 90.9%
- MESO1 viability (%) ([3]; conc 0.012207 uM): 91.2%
- MESO1 viability (%) ([3]; conc 0.0244141 uM): 80.2% and 88.3%
- MESO1 viability (%) ([3]; conc 0.0488281 uM): 80.6% and 75.2%
- MESO1 viability (%) ([3]; conc 0.0976562 uM): 77.6% and 79.5%
- MESO1 viability (%) ([3]; conc 0.195312 uM): 74.7% and 70.5%
- MESO1 viability (%) ([3]; conc 0.390625 uM): 76.8% and 75.4%
- MESO1 viability (%) ([3]; conc 0.78125 uM): 70.1% and 72.2%
- MESO1 viability (%) ([3]; conc 1.5625 uM): 74.3% and 71.9%
- MESO1 viability (%) ([3]; conc 3.125 uM): 66.5% and 67.5%
- MESO1 viability (%) ([3]; conc 6.25 uM): 73.9% and 73.5%
- MESO1 viability (%) ([3]; conc 12.5 uM): 65.3% and 66.5%
- MESO1 viability (%) ([3]; conc 25 uM): 64.8% and 66.6%
- MESO1 viability (%) ([3]; conc 50 uM): 62.7% and 65.8%
